The values below come from paper PMC6211257, “Synthesis and cytotoxic activities of novel copper and silver complexes of 1,3-diaryltriazene-substituted sulfonamides” (Journal of Enzyme Inhibition and Medicinal Chemistry, 2018).

The subject of experiment [1] is cervix carcinoma (HeLa) cells. The experiment in a line: MTT cytotoxicity assay, HeLa. The conditions noted are these: cancer cell, MTT, 48 h, means of three independent experiments. The class given is cell-based, human. From the text: (§1) The cells studied were obtained from the American Type Culture Collection (ATCC, Manassas, VA), and included human colorectal adenocarcinoma (DLD-1), cervix carcinoma (HeLa), breast adenocarcinoma (MDA-MB-231), colon adenocarcinoma (HT-29), endometrial adenocarcinoma (ECC-1), prostate cancer (DU-145 and PC-3), normal embryonic kidney (HEK-293), normal prostate epithelium (PNT-1A), and normal retinal pigment epithelium (ARPE-19) cells. As recommended by ATCC, cells were subjected to propagation using DMEM-F12 and RPMI-1640 media, with supplements 10% fetal bovine serum, L-glutamine (2 mM), penicillin (100 U/mL) and streptomycin ([…]) in a humidified atmosphere (5% CO2) at 37 °C. When the cultures reached 70–80% confluence, the cells were harvested using 0.25% trypsin (Sigma).
(§2) Cytotoxic activities were based on the reduction of (3–(4,5-dimethylthiazol-2-yl)-2,5-diphenyltetrazolium bromide) (MTT) by mitochondrial dehydrogenase of viable cells to give a blue formazan product which can be measured spectrophotometrically by UV–Vis measurements. MTT colorimetric assays were performed using 96 well plates. The cells were seeded in a 96 well plate at concentration 5.0 × 10^4 cells/well and incubated at 37 °C for 24 h. After treatment with various concentrations of the test compound (1, 5, 10, 25, 50, 100 and 200 μM), the cells were incubated for an additional 48 h at 37 °C. After incubation, the medium was removed, and the cells in each well were incubated with 100 μL MTT solution (5 mg/mL) for 4 h at 37 °C. MTT solutions were then discarded, and 100 μL DMSO were added to dissolve insoluble formazan crystals. Optical densities were measured at 570 nm (Varioskan Flash Multimode Reader, Thermo, Waltham, MA). Data were obtained from triplicate wells. Cytotoxic effects were determined in reference to negative controls (vehicle treated cells). Cytotoxicity was expressed as the mean percentage increase relative to the unexposed control (mean ± SD). All statistical analyses were performed using SPSS package program for Windows (Version 20, Chicago, IL). Control values were set to 0% cytotoxicity. Cytotoxicity data, where appropriate, were fitted to sigmoidal curves and a four-parameter logistic model was used to calculate the IC50 values, the concentration of material causing 50% inhibition, compared to the untreated controls. 5-Fluorouracil (5-FU) was also used as a control agent[21]^,[22].

Experiment [2] relates to prostate cancer (PC-3) cells. The experiment can be described thus: MTT cytotoxicity assay, PC-3. The class given is cell-based, human. The conditions noted are these: 48 h, means of three independent experiments.
Source text: as §1, §2

For experiment [3], the system named is normal embryonic kidney (HEK-293) cells. The experiment in a line: MTT cytotoxicity assay, HEK-293. The class given is cell-based, human. The settings on record: 48 h, means of three independent experiments.
Source text: as §1, §2

The test system of experiment [4] is normal prostate epithelium (PNT-1A) cells. The experiment in a line: MTT cytotoxicity assay, PNT-1A. The settings on record: 48 h. The class given is cell-based, human.
Source text: as §1, §2

For experiment [5], the system named is breast adenocarcinoma (MDA-MB-231) cells. The experiment can be described thus: MTT cytotoxicity assay, MDA-MB-231. The class given is cell-based, human. The conditions noted are these: 48 h, means of three independent experiments.
Source text: as §1, §2

The subject of experiment [6] is endometrial adenocarcinoma (ECC-1) cells. The experiment can be described thus: MTT cytotoxicity assay, ECC-1. The format is cell-based, human. The settings on record: 48 h, means of three independent experiments.
Source text: as §1, §2

Experiment [7] relates to colon adenocarcinoma (HT-29) cells. The experiment can be described thus: MTT cytotoxicity assay, HT-29. The class given is cell-based, human. The settings on record: 48 h, means of three independent experiments.
Source text: as §1, §2

Experiment [8] deals with human colorectal adenocarcinoma (DLD-1) cells. The experiment can be described thus: MTT cytotoxicity assay, DLD-1. The format is cell-based. The settings on record: 48 h, means of three independent experiments.
Source text: as §1, §2

The subject of experiment [9] is prostate cancer (DU-145) cells. The experiment in a line: MTT cytotoxicity assay, DU-145. The class given is cell-based, human. The conditions noted are these: for IC50: MTT, 48 h.
Source text: as §1, §2

Experiment [10] relates to normal retinal pigment epithelium (ARPE-19) cells. The experiment can be described thus: MTT cytotoxicity assay, ARPE-19. The class given is cell-based, human. The settings on record: 48 h, means of three independent experiments.
Source text: as §1, §2

The mark [11] stands for this setting: normal cell, means of three independent experiments, read-out: IC50 PNT-1A.
Where [12] appears, read: cancer cell, means of three independent experiments, read-out: IC50 DU-145.
Where [13] appears, read: Homo sapiens, PC-3, cancer cell.
[14] abbreviates: Homo sapiens, HEK293, normal cell.
The mark [15] stands for this setting: Homo sapiens, PNT1A, normal cell, means of three independent experiments, read-out: IC50 PNT-1A.
The mark [16] stands for this setting: Homo sapiens, MDA-MB-231, cancer cell.
[17] abbreviates: Homo sapiens, ECC-1, cancer cell.
The mark [18] stands for this setting: Homo sapiens, HT-29, cancer cell.
Setting [19] is: Homo sapiens, DLD-1, cancer cell.
The mark [20] stands for this setting: Homo sapiens, DU-145, cancer cell, means of three independent experiments, read-out: IC50 DU-145.
The mark [21] stands for this setting: Homo sapiens, ARPE-19, normal cell.

Where “and” joins values, the source holds several entries; their conditions need not be identical. Equal values may be shown once. Read-outs that look alike come from different tables or passages of the source.

With `COc1ccc([N+]2=N[N](c3cccc(S(N)(=O)=O)c3)[Cu-]2([O]C(C)=O)[O]C(C)=O)cc1` [Compound L2-Cu], the IC50 is 2.08 µM and 2.1 µM in experiment [1]; 65.3 ± 8.5 µM in [2] (cancer cell); 159 ± 19.4 µM in experiment [3] (normal cell); 95.1 ± 11.1 µM in experiment [4] (setting [11]); 50 ± 2.4 µM in [5] (cancer cell); 39.5 ± 2.5 µM in experiment [6] (cancer cell). In addition, the 50% inhibitory concentration (IC50) in experiment [7] (cancer cell) stood at 94.9 ± 9.4 µM; in experiment [8] (cancer cell), 42.7 ± 3.3 µM; in [9] (setting [12]), 116 ± 14.6 µM; in [10] (normal cell) it was 132 ± 15.6 µM.
Turning to `CC(=O)[O][Cu-]1([O]C(C)=O)[N](c2cccc(S(N)(=O)=O)c2)N=[N+]1c1ccc(F)cc1` [Compound L1-Cu], the IC50 in experiment [1] was 5.02 µM and 5 µM; in experiment [2] (cancer cell) it was 102 ± 10.2 µM; in experiment [3] (normal cell) it was 68.8 ± 8.7 µM; in experiment [4] (setting [11]) it was 76.5 ± 8.5 µM; in [5] (cancer cell), 117 ± 14.2 µM; in [6] (cancer cell), 26.2 ± 2.6 µM. The IC50 in experiment [7] (cancer cell) turned out to be 199 ± 24.3 µM; in experiment [8] (cancer cell), 47.1 ± 4.7 µM; in experiment [9] (setting [12]), 105 ± 13.5 µM; in [10] (normal cell) it was 119 ± 13.5 µM.
On to `COc1ccc(/N=N/Nc2cccc(S(N)(=O)=O)c2)cc1OC` [Compound L4, 3–(3-(3,4-dimethoxyphenyl)triaz-1-en-1-yl) benzenesulfonamide], for which the IC50 in experiment [1] (Homo sapiens, HeLa) is over 300 µM; in experiment [2] (setting [13]) it was 299 ± 32.3 µM; in experiment [3] (setting [14]) it was over 300 µM; in experiment [4] (setting [15]), 237 ± 26.8 µM; in experiment [5] (setting [16]) it was 155 ± 2.6 µM; in experiment [6] (setting [17]), over 300 µM. Also, the IC50 in experiment [7] (setting [18]) is over 300 µM; in experiment [8] (setting [19]) it was over 300 µM; in experiment [9] (setting [20]), 182 ± 23.4 µM; in experiment [10] (setting [21]), over 300 µM.
In the case of `CC(=O)[O][Ag][N](N=Nc1ccc(C(=O)O)cc1)c1cccc(S(N)(=O)=O)c1` [Compound L3-Ag], the IC50 in experiment [1] was found to be 3.4 ± 0.2 µM; in experiment [2] (cancer cell), 5.1 ± 0.5 µM; in experiment [3] (normal cell) it was 9.9 ± 0.9 µM; in experiment [4] (setting [11]), 9.2 ± 0.9 µM; in experiment [5] (cancer cell) it was 9.8 ± 0.9 µM; in [6] (cancer cell), 16.2 ± 1.6 µM. The IC50 in [7] (cancer cell) stood at 10.1 ± 3.1 µM; in experiment [8] (cancer cell), 3.3 ± 0.3 µM; in experiment [9] (setting [12]), 4.8 ± 0.4 µM; in [10] (normal cell), 9.5 ± 0.9 µM.
For the compound `COc1ccc([N+]2=N[N](c3cccc(S(N)(=O)=O)c3)[Cu-]2([O]C(C)=O)[O]C(C)=O)cc1OC` [Compound L4-Cu], the IC50 in experiment [1] turned out to be 116 ± 9.2 µM; in experiment [2] (cancer cell) it was 297 ± 32.4 µM; in experiment [3] (normal cell), 197 ± 23.5 µM; in experiment [4] (setting [11]), 125 ± 14.8 µM; in experiment [5] (cancer cell), 206 ± 25.1 µM; in experiment [6] (cancer cell) it was 308 ± 34.2 µM. The IC50 in experiment [7] (cancer cell) worked out at 199 ± 22.5 µM; in [8] (cancer cell) it was 58.4 ± 5.8 µM; in experiment [9] (setting [12]), 160 ± 18 µM; in experiment [10] (normal cell), 105 ± 13.5 µM.
For `NS(=O)(=O)c1cccc(N/N=N/c2ccc(F)cc2)c1` [Compound L1, 3–(3-(4-fluorophenyl)triaz-1-en-1-yl) benzenesulfonamide], the 50% inhibitory concentration (IC50) in experiment [1] (Homo sapiens, HeLa) came out at 179 ± 16 µM; in experiment [2] (setting [13]), 168 ± 18.5 µM; in experiment [3] (setting [14]), 132 ± 16.4 µM; in [4] (Homo sapiens, PNT1A, unit given as M, read-out: IC50 normal prostate cells (PNT1-A)), 195 µM; in experiment [4] (setting [15]), 195 ± 23.5 µM; in [5] (setting [16]) it was 104 ± 28.2 µM. For the same compound, the IC50 stood at 239 ± 27.5 µM in [6] (setting [17]); 79.4 ± 15.4 µM in experiment [7] (setting [18]); 140 ± 11 µM in [8] (setting [19]); 29 µM in experiment [9] (Homo sapiens, DU-145, unit given as M, read-out: IC50 prostate cancer (DU-145)); 29 ± 2.9 µM in experiment [9] (setting [20]); 279 ± 33.8 µM in experiment [10] (setting [21]). For the same compound, the “selectivity between prostate cancer cell line (DU-145) and normal prostate cells (PNT1-A)” value in experiment [9] (from IC50 values DU-145 vs PNT1-A) was “high selectivity”.
In the case of `O=c1[nH]cc(F)c(=O)[nH]1` [Compound 5-FU, 5-Fluorouracil, reference compound], the IC50 in experiment [1] (Homo sapiens, HeLa) came to 19.2 µM; in experiment [1] it was 19.2 ± 1.2 µM; in experiment [2] (setting [13]) it was 45.5 ± 4.5 µM; in experiment [3] (setting [14]), 65.3 ± 8.6 µM; in experiment [4] (setting [15]), 142 ± 18.6 µM; in experiment [5] (setting [16]), 22.4 ± 2.5 µM. Moreover, the IC50 in experiment [6] (setting [17]) came out at 30.6 ± 3.5 µM; in [7] (setting [18]) it was 24.2 ± 2.4 µM; in experiment [8] (setting [19]), 50.2 ± 21 µM; in [9] (setting [20]), 37.3 ± 5.8 µM; in experiment [10] (setting [21]) it was 75.3 ± 7.5 µM.
